This is an account of results in ChEMBL document CHEMBL1201862, “PubChem BioAssay data set” (2004).

Common to all, as to assay: DTP human tumour cell line panel, 48 h
Experiment [1] concerns ACHN.
The subject of experiment [2] is BT-549.
Experiment [3] relates to HCC 2998.
The subject of experiment [4] is Hs-578T.
Experiment [5] deals with M14.
Experiment [6] relates to MDA-MB-231.
Experiment [7] concerns Malme-3M.
In experiment [8] the test system is OVCAR-3.
Experiment [9] deals with OVCAR-5.
Experiment [10] concerns OVCAR-8.
For experiment [11], the system named is RPMI-8226.
Experiment [12] relates to SF-539.
The test system of experiment [13] is SK-MEL-28.
In experiment [14] the test system is U-251.
The subject of experiment [15] is UACC-257.
The test system of experiment [16] is UACC-62.
Experiment [17] concerns UO-31.

Structures are written as SMILES.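 Dose response: 5 concentrations. Exposure: 48 h. Format: 96-well plates. Endpoint: linear interpolation; highest concentration if not reached. GI50: concentration for 50% inhibition of growth.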 Active and inactive are the calls of the source. No stated cut-off is given here; in the data, active = GI50 up to about 1.1 µM and inactive = higher. A value given as a limit tells only on which side of the number the result lay.

As to `C/C(=C1/N=C(c2ccccc2)OC1=O)c1ccccc1`, the GI50 in experiment [1] is 74.6 µM (inactive); in [2], > 100 µM (inactive); in [3] it was > 100 µM (inactive); in experiment [4], 46.3 µM (inactive); in experiment [5], > 100 µM (inactive); in experiment [6] it was > 100 µM (inactive). Further, the GI50 in [7] was 53.2 µM (inactive); in experiment [8] it was 74.5 µM (inactive); in [9], > 100 µM (inactive); in [10], > 100 µM (inactive); in experiment [11], 23.3 µM (inactive); in [12], 48.6 µM (inactive). In addition, the GI50 in experiment [13], in [14], in experiment [15] and in [16] was > 100 µM (inactive) in each case.
As to `Cc1cc(S(=O)(=O)Nc2nc3ccccc3nc2-c2cccc([N+](=O)[O-])c2)c(S)cc1Cl`, the GI50 was 27.8 µM (inactive) in experiment [1]; 38.7 µM (inactive) in experiment [2]; 18.8 µM (inactive) in [3]; 23.6 µM (inactive) in experiment [4]; 17.2 µM (inactive) in [5]; 58.5 µM (inactive) in [6]. Further, the GI50 in experiment [7] is 18.5 µM (inactive); in experiment [8], 15.9 µM (inactive); in experiment [9], 36.6 µM (inactive); in experiment [10], 34.5 µM (inactive); in [11] it was 19.2 µM (inactive); in experiment [12], 22.8 µM (inactive). Also, the GI50 in experiment [13] was 15.8 µM (inactive); in experiment [14] it was 16.9 µM (inactive); in experiment [15], 18.1 µM (inactive); in [16] it was 12.3 µM (inactive); in experiment [17], 22.5 µM (inactive).
As for `CC(=O)N(C(C)=O)n1c(Cc2ccc(C)cc2)nn(C(C)=O)c1=O`, the GI50 in experiment [1], in experiment [2], in experiment [3], in experiment [4], in experiment [5] and in experiment [6] was > 100 µM (inactive) throughout. The GI50 in experiment [7], in experiment [8], in [9], in experiment [10], in experiment [11] and in [12] was > 100 µM (inactive) each time. In addition, the GI50 in [13], in experiment [14], in experiment [15], in [16] and in experiment [17] was > 100 µM (inactive) in each case.
In the case of `CCOC(=O)c1ccc(/N=C2\SC(=S)N(c3ccc(F)cc3)\C2=N/c2ccc(C(=O)OCC)cc2)cc1`, the GI50 was 13.6 µM (inactive) in experiment [1]; 12.6 µM (inactive) in experiment [2]; 40.7 µM (inactive) in [3]; 13.9 µM (inactive) in experiment [4]; 6.75 µM (inactive) in experiment [5]; 7.8 µM (inactive) in experiment [6]. Moreover, the GI50 in [7] is 15.5 µM (inactive); in experiment [8] it was 20 µM (inactive); in experiment [9] it was 23 µM (inactive); in experiment [10] it was 7.53 µM (inactive); in experiment [11], 9.42 µM (inactive); in experiment [12], 20 µM (inactive). In addition, the GI50 in [13] is 13.2 µM (inactive); in [14] it was 20.6 µM (inactive); in [15], 15.2 µM (inactive); in experiment [16] it was 8.07 µM (inactive); in experiment [17], 10.8 µM (inactive).
`CC(C)(C)OC(=O)NC(Cc1ccc([N+](=O)[O-])cc1)C(=O)NC(CCCCNC(=O)OCc1ccccc1)C(=O)ON1C(=O)CCC1=O` (centres undefined): the GI50 was > 100 µM (inactive) in experiment [1]; > 100 µM (inactive) in experiment [2]; 24.4 µM (inactive) in [3]; > 100 µM (inactive) in experiment [4]; 70.3 µM (inactive) in experiment [5]; 43.8 µM (inactive) in [6]. Moreover, the GI50 in experiment [7] is > 100 µM (inactive); in experiment [8], > 100 µM (inactive); in [9], > 100 µM (inactive); in experiment [10], > 100 µM (inactive); in [11], 57 µM (inactive); in [12], > 100 µM (inactive). In addition, the GI50 in experiment [13], in [14], in [16] and in [17] was > 100 µM (inactive) throughout.
As to `COc1cc(Nc2cc(Cl)cc(Cl)c2)nc(N)n1`, the GI50 in experiment [1] is 18.9 µM (inactive); in experiment [2] it was 17.1 µM (inactive); in [3] it was 16.6 µM (inactive); in experiment [4], 26.2 µM (inactive); in experiment [5], 20.1 µM (inactive); in [6], 18.9 µM (inactive). Moreover, the GI50 is 21.3 µM (inactive) in experiment [7]; 17.2 µM (inactive) in experiment [8]; 40 µM (inactive) in [9]; 18.9 µM (inactive) in [10]; 19.9 µM (inactive) in experiment [11]; 15.7 µM (inactive) in experiment [12]. Further, the GI50 in experiment [14] is 15.2 µM (inactive); in experiment [15], 19.3 µM (inactive); in experiment [16], 17.1 µM (inactive); in [17], 16.9 µM (inactive).
Take `CC1OC(O)CC(N(C)C)C1O.CC1OC(O)CCC1O.CCC1CC(O)c2c(O)c3c(c(O)c2C1O)C(=O)c1cccc(O)c1C3=O` (centres undefined): the GI50 is 0.0159 µM (active) in [1]; 0.0448 µM (active) in experiment [2]; 0.0197 µM (active) in [3]; 0.0507 µM (active) in experiment [4]; 0.0188 µM (active) in experiment [5]; 0.0275 µM (active) in [6]. The GI50 in experiment [7] was 0.021 µM (active); in experiment [8], 0.021 µM (active); in [9], 0.0375 µM (active); in experiment [10], 0.0211 µM (active); in [11], 0.0208 µM (active); in experiment [12], 0.0373 µM (active). The GI50 is 0.0266 µM (active) in experiment [13]; 0.0211 µM (active) in experiment [14]; 0.0342 µM (active) in experiment [15]; 0.0197 µM (active) in experiment [16]; 0.0114 µM (active) in [17].
Consider `CCOC(=O)/C(C(=O)Nc1ccc(Cl)cc1)=C(/N)N1CCOCC1`, for which the GI50 in experiment [1], in [2], in experiment [3], in [4], in experiment [5] and in experiment [6] was > 100 µM (inactive) in each case. Besides, the GI50 in [7], in [8], in experiment [9], in experiment [10], in [11] and in experiment [12] was > 100 µM (inactive) throughout. Moreover, the GI50 in [13], in experiment [14], in experiment [15] and in [16] was > 100 µM (inactive) each time.
With `CC1=C(Br)C(=O)c2c(O)ccc(O)c2C1=O`, the GI50 in [1] is 0.869 µM (active); in experiment [2] it was 0.71 µM (active); in experiment [3], 1.75 µM (inactive); in experiment [4] it was 2.81 µM (inactive); in experiment [5], 0.431 µM (active); in [6], 1.26 µM (inactive). Also, the GI50 in [7] was 0.295 µM (active); in [8], 0.74 µM (active); in experiment [9] it was 1.66 µM (inactive); in experiment [10], 0.481 µM (active); in [11], 0.278 µM (active); in [12], 0.646 µM (active). For the same compound, the GI50 in experiment [13] is 0.875 µM (active); in experiment [14], 1.5 µM (inactive); in experiment [15] it was 1.13 µM (inactive); in experiment [16] it was 0.71 µM (active); in [17], 0.625 µM (active).
Consider `O=C(OC1C#CCSCC#C/C=C\1)c1ccc2c(c1)C(=O)c1ccccc1C2=O` (centres undefined), for which the GI50 in experiment [1] is 55 µM (inactive); in experiment [2] it was 22.6 µM (inactive); in experiment [3] it was > 100 µM (inactive); in experiment [4] it was 24.2 µM (inactive); in experiment [5], 65.2 µM (inactive); in [6], 26.2 µM (inactive). Besides, the GI50 is > 100 µM (inactive) in experiment [7]; > 100 µM (inactive) in [8]; > 100 µM (inactive) in experiment [9]; 68.5 µM (inactive) in experiment [10]; > 100 µM (inactive) in [11]; 15.5 µM (inactive) in experiment [12]. In addition, the GI50 in experiment [13] is > 100 µM (inactive); in experiment [14], 16.2 µM (inactive); in experiment [15], > 100 µM (inactive); in experiment [16] it was 11.9 µM (inactive); in experiment [17] it was 42.7 µM (inactive).
In the case of `O=C1CC2(CCNCC2)C(=O)N1N1CCCCC1`, the GI50 in experiment [1], in experiment [2], in experiment [3], in [4], in experiment [5] and in [6] was > 100 µM (inactive) in each case. Further, the GI50 in experiment [7], in [8], in experiment [9], in experiment [10], in experiment [11] and in experiment [12] was > 100 µM (inactive) throughout. Also, the GI50 in [13], in experiment [14], in experiment [15], in experiment [16] and in [17] was > 100 µM (inactive) in each case.
Consider `O=C1N/C(=N/N=C/C(O)C(O)C(O)CO)N/C1=C\c1ccco1` (centres undefined), for which the GI50 in experiment [1], in [2], in [3], in experiment [4], in experiment [5] and in experiment [6] was > 100 µM (inactive) in each case. Moreover, the GI50 in [7], in experiment [8], in experiment [9], in experiment [10], in experiment [11] and in experiment [12] was > 100 µM (inactive) throughout. The GI50 in experiment [13], in [14], in [15] and in experiment [16] was > 100 µM (inactive) each time.

What is called GI50 is the concentration giving 50% growth inhibition.
